What was measured:
[1] = test system: NCI-H358 tumor (K-RAS G12C mutation); type: in vivo, BALB/c nude mice; conditions: for Day 0 Tumor volume (mm^3) Vaverage ± SEM: Day 0 (at grouping, before administration), 15 mg/kg PO QD group; for Day 21 Tumor volume (mm^3) Vaverage ± SEM / Tumor inhibition rate TGI (%) / Tumor regression: Day 21, 15 mg/kg PO QD; for Tumor regression: animals with regression / group of 8; for Day 0 Body weight (g) Waverage ± SEM: mouse, in vivo, po, 15 mg/kg
Experimental: The cells were digested with trypsin-EDTA twice a week for passaging as per conventional practice. When the cell saturation reached 80%-90% and a required amount was achieved, the cells were collected and counted for later use. […] 5% DMSO/5% Solutol/90% water was used as a blank control. 3) Tumor inoculation and drug administration: BALB/c nude mice, female, 6-8 weeks old, weighing 18-20 g. The experiment started after 3-7 days of adaptive feeding. 0.1 mL of NCI-H358 cells (5×10^6 cells) were inoculated subcutaneously on the right back of each mouse. The mice were grouped for administration when the average tumor volume reached approximately 150 mm^3. The animals were weighed before administration and the tumor volume was measured. Grouping was randomly performed according to the tumor volume.
Animals were monitored daily for health and death, and routine examinations include observation of the effect of tumor growth and drug treatment on the daily performance of the animals, such as behavioral activities, food and water intake, weight changes (measured once every other day), appearance, or other abnormal conditions. Animal mortality and side effects within each group were recorded based on the number of animals in the group.
Tumor diameters were measured 2-3 times weekly using a vernier caliper.
The tumor volume was calculated as follows: […]
where a and b represent the long and short diameters of the tumor, respectively.
The anti-tumor therapeutic effect of the compound was evaluated by tumor growth inhibition rate TGI (%) or relative tumor proliferation rate T/C (%).
TGI (%) was calculated as follows: […]
T/C (%) was calculated as follows: […]
where TRTV represents the relative tumor volume of the treatment group; CRTV represents the relative tumor volume of the solvent control group.
Based on the results of tumor measurement, the relative tumor volume (RTV) was calculated as follows: […]
where V0 represents the average tumor volume measured at the time of grouping and administration (i.e., d0), Vt represents the average tumor volume in a certain measurement, and TRTV and CRTV take the data on the same day.
After the completion of the experiment, tumors were weighed, and the percentage of Tweight/Cweight was calculated, where Tweight and Cweight represent the tumor weights of the treatment group and the solvent control group, respectively.
Data calculation and analysis: T test was employed for comparison between two groups. One-way ANOVA was employed for comparison between three or more groups. If there is a significant difference in F-values, multiple comparisons should be made after ANOVA analysis. All data analyses were performed with SPSS 17.0. p<0.05 was defined as a significant difference.

in vitro = conditions: human, Caco-2, pH 7.4
Experimental: Drug penetration test: the Transwell culture plate was retrieved from the incubator. […] All samples were prepared in double parallel. The integrity of the cell monolayer membrane after 2 hours of incubation was assessed using leakage of fluorescein; fluorescein stock solution was diluted with HBSS (25 mM HEPES, pH 7.4) to a final concentration of 100 μM. 100 μL of fluorescein solution was added to each well of the upper Transwell plate and 300 μL of HBSS (25 mM HEPES, pH 7.4) was added to each well of the lower receiving plate; after incubation at 37° C. for 30 min, 80 μL of the solution was pipetted from the upper and lower layers of each well to a new 96-well plate.
The apparent permeability coefficients (Papp, unit: cm/s) of the compounds in Caco-2 cells were calculated from the specific concentrations at the acceptor and donor ends, and the specific calculation formula is as follows: […]
where VA represents the volume of the acceptor end solution (0.3 mL for Ap→Bl, 0.1 mL for Bl→Ap); Area represents the area of the Transwell-96 well plate (0.143 cm^2); time represents the incubation time (unit: s); [drug]acceptor represents the drug concentration (ratio of peak area to internal standard area) at the acceptor end; [drug]initial, donor represents the drug concentration at the donor end (ratio of peak area to internal standard area).
The efflux ratio was calculated as follows: […]
where Papp (B-A) represents the apparent permeability coefficient from base end to top end; Papp (A-B) represents the apparent permeability coefficient from top end to base end.

Row | Structure (SMILES) | Day 0 Tumor volume (mm^3) Vaverage ± SEM [1] [mm^3] | Day 21 Tumor volume (mm^3) Vaverage ± SEM [1] [mm^3] | Tumor inhibition rate TGI (%) [1] [%] | Tumor regression [1] | Day 0 Body weight (g) Waverage ± SEM [1] [g] | Papp A→B at 2 h, 10 μM (in vitro) [×10⁻⁶ cm/s] | Papp B→A at 2 h, 10 μM (in vitro) [×10⁻⁶ cm/s] | efflux ratio at 2 h, 10 μM (in vitro)
1 | [2H]C([2H])([2H])c1cccc2cccc(N3CCc4c(nc(OC[C@@H]5CCCN5C)nc4N4CCN(C(=O)C=C)[C@@H](CC#N)C4)C3)c12 [Compound 1, 2-((S)-1-acryloyl-4-(7-(8-(methyl-d3)naphthalen-1-yl)-2-(((S)-1-methylpyrrolidin-2-yl)methoxy)-5,6,7,8-tetrahydropyrido[3,4-d]pyrimidin-4-yl)piperazin-2-yl)acetonitrile] | 150 ± 10 | 153 ± 14 | 99.5 | 3/8 | 22.5 ± 0.5 | 0.63 | 5.5 | 8.7
2 | [2H]C([2H])([2H])N1CCC[C@H]1COc1nc2c(c(N3CCN(C(=O)C=C)[C@@H](CC#N)C3)n1)CCN(c1cccc3cccc(C)c13)C2 [Compound 42, 2-((S)-1-acryloyl-4-(7-(8-methylnaphthalen-1-yl)-2-(((S)-1-(methyl-d3)pyrrolidin-2-yl)methoxy)-5,6,7,8-tetrahydropyrido[3,4-d]pyrimidin-4-yl)piperazin-2-yl)acetonitrile] | 150 ± 9 | 151 ± 18 | 99.8 | 4/8 | 22.8 ± 0.6 | – | – | –

Source: US20230257374A1, “NOVEL KRAS G12C PROTEIN INHIBITOR, PREPARATION METHOD THEREFOR, AND USE THEREOF” (INNOVENT BIOLOGICS (SUZHOU) CO., LTD., priority 2019, published 2023)
